This is an account of results in a melting point compilation (Tetko et al.; mined from patent text by program, amines drawn as free bases though some values may be those of a salt).

In general, melting point refers to the temperature, or range, at which the solid turns liquid. In turn, `CC(C)c1ccc2c(c1)C(N1CCN(CCCO)CC1)Cc1ccc(F)cc1S2` (configuration not stated) showed a melting point of 106 to 108 °C.
Then `CCNC(=O)[C@@H]1C[C@H](SCc2ccc(OC)cc2)CN1`, with 67 to 68 °C.
Then `CCOC(=O)C=Cc1ccc(NCCOC)cc1`, with 49.9 to 53.4 °C.
Then `CC1(C)CC(=C(c2ccc(O)cc2)c2ccc(C#CCO)cc2)CC(C)(C)C1`, with 141 to 142 °C; and `CCOC(=O)C1Cc2ccc(NC)cc2NC1=O` (configuration not stated), with 171 to 172 °C; and `COC(=O)C(c1ccc(Cl)cc1)C(OC)OC` (configuration not stated), with 61 to 62 °C.
For `CN(CCO)C(=O)NC(CS)Cc1ccccc1` (single isomer, unassigned; (+)), the melting point amounted to 86 °C.
Then `Cn1c(=O)nc(-c2ccccc2F)c2cc(Cl)sc21`, with 192 to 194 °C; and `COC(=O)c1ccc(=O)n(CCNC(=O)c2ccc(C)nc2)c1`, with 184 to 185 °C; and `CC1(C)N=C(c2ccccc2Cl)c2cc([N+](=O)[O-])ccc2N(CCO)C1=O`, with 192 to 194 °C.
In turn, `C=CCOc1cc2c(cc1C)OC1(CC(C)(C)c3cc(O)c(C)cc3O1)CC2(C)C` (configuration not stated) returned a melting point of 143 to 144 °C.
As for `NC(=O)c1nnn(Cc2c(Cl)cccc2Cl)c1N`, the melting point lay in the range of 243 to 245 °C.
`O=Cc1ccc(I)nc1` showed a melting point of 141 °C.
Then `CCOC(=O)Cc1ccc(-c2ccc3c(=O)c(C(=O)NC)c(N)n(CC)c3n2)cc1`, with 195 °C; and `N#Cc1ccc(C=O)c(-c2ccccc2)c1`, with 75 °C.
Consider `Cc1oc(-c2ccc(C(F)(F)F)cc2)nc1-c1ccc(-c2cc(Br)c(OCC(=O)O)c(Br)c2)cc1`, for which the melting point fell in the range of 165 to 166 °C.
In turn, `COc1cccc2c1cc(C)n2Cc1ccc(F)cc1` had a melting point of 104 to 108 °C.
Then `CCCCCOc1nc(N)nc2c1ncn2C1C=CC(CO)C1` (configuration not stated), with 139 to 141 °C; and `Clc1nn2c(-c3ccccc3Br)nnc2c2ccccc12`, with 203 °C; and `O=C1C=NC(c2cccs2)(C(F)(F)F)O1` (configuration not stated), with 62 to 65 °C.
The compound `Cc1cc([N+](=O)[O-])ccc1NC(=O)n1nc(Oc2cccc(C(F)(F)F)c2)cc1C` registered a melting point of 165 to 166 °C.
Then `CC(c1cccc(C(F)(F)F)c1N)S(C)(=O)=O` (configuration not stated), with 153 to 155 °C; and `CN(C)NC(=O)NCCCCC1CCSS1` (configuration not stated), with 60 to 61 °C.
As to `Oc1cccc2ccc3cccnc3c12`, the melting point was determined as 104 °C.
Then `Cc1c(C)c2c(c(C)c1NC=O)CC(C)(CSc1ccccc1)O2` (configuration not stated), with 130 to 131 °C; and `COC(=O)N[C@@H]1CCc2ccc(Br)cc2C1=O`, with 111 to 112 °C; and `CC(=Cc1ncon1)c1ccc(Cl)cc1`, with 56 to 57 °C.
Regarding `CN1C2CCCC1CC(NC(=O)c1cccc3nc(-c4ccc(F)cc4)oc13)C2` (configuration not stated), the melting point was 229 to 231 °C.
Then `COc1ncc(-c2ccccc2)c(C(=O)N(C)Cc2cc(C(F)(F)F)cc(C(F)(F)F)c2)n1`, with 97.5 to 98.5 °C.
Then `CNN(NC)C(=S)Oc1cc(C)ccc1C(=O)OC`, with 99.9 to 100 °C; and `CON(C)C(=O)Nc1ccc(CN2OCC(C)(C)C2=O)c(Cl)c1`, with 93 to 95 °C; and `Oc1ccccc1C=NC1=NN(c2cccc(C(F)(F)F)c2)CC1`, with 156 °C.
With `CC(C)NCC(O)COc1cccc2c1SCCC2` (configuration not stated), the melting point was in the range of 91 to 92 °C.
`O=C(O)CP(=O)(O)CCCc1ccccc1` registered a melting point of 118 to 119 °C.
Then `Cc1cc(-c2c(-c3ccc(S(C)(=O)=O)cc3)cnn(-c3cccc(Cl)c3)c2=O)ccc1F`, with 228 to 230 °C.
Then `O=C(O)C1CCc2c(c3ccccc3n2C(=O)c2ccc(Cl)cc2)C1` (configuration not stated), with 210 to 211 °C.
The compound `O=C(O)c1cccc(C(=O)C=Cc2ccc(OCc3ccccc3)cc2)c1O` yielded a melting point of 174 to 175 °C.
Then `CCCc1nc2c(N)nc3cc(-c4cccc(CN)c4)ccc3c2s1`, with 168 to 171 °C; and `O=C(c1ccc(Cl)cc1)N(c1ccccc1)c1ccc(OCc2ccccc2)cc1`, with 132 to 136 °C; and `O=C(O)C1=Cc2cc(Cl)c(Sc3ccc(Cl)cc3)cc2OC1C(F)(F)F` (configuration not stated), with 252 to 253 °C.
Then `O=c1c2c(Br)cc(Br)cc2n(Cc2ccccc2)c(=O)n1Cc1ccccc1`, with 169 to 172 °C; and `CCCNc1nc(N)nc(N(CCC)c2ccc(OC)c(F)c2)n1`, with 53 to 55 °C; and `COc1ccc(N2CCN(c3c(C)c(C)c4c(c3C)C(O)(c3ccc(N(C)C)cc3)C(C)(C)O4)CC2)cc1` (configuration not stated), with 144 to 146 °C.
Then `CN1C(=O)N(CC(CS(=O)(=O)c2ccc(Oc3ccc(C(F)(F)F)cc3)cc2)N(O)C=O)C(=O)C1(C)C` (configuration not stated), with 141 to 143 °C; and `Cc1cc(Br)ccc1C1(CBr)OCCO1`, with 86 °C.
Compound `Cc1cccc2c1C[C@H](C(=O)O)[C@@H]2C` (relative stereo) returned a melting point of 132 to 135 °C.
`COc1ccc(C2(O)C(=O)Nc3ccc(Cl)cc32)cc1` (configuration not stated) yielded a melting point of 202 °C.
Then `COc1cc(Nc2c([N+](=O)[O-])ccc(Cl)c2C(=O)O)cc(OC)c1`, with 174 to 177 °C.
Then `Cn1cc(-c2cc(-c3cnc4[nH]ncc4c3)ccn2)n(-c2ccc(C(C)(C)C#N)cc2)c1=O`, with 294 °C.
As for `COc1cc2[nH]nc(C(=O)NN=Cc3ccc([N+](=O)[O-])o3)c2cc1OC`, the melting point was determined as 334 °C.
Then `CCc1ncnc(O)c1I`, with 191 to 192 °C; and `O=C1Nc2c(cc([N+](=O)[O-])cc2[N+](=O)[O-])C1c1ncnc2nn(C3CCCC3)cc12` (configuration not stated), with more than 300 °C.
Then `CCOC(=O)C1=C(C)N2CCNC2=C(C(=O)OCC)C1c1ccco1` (configuration not stated), with 164 °C.
`NC(=O)Nc1cccc2c1C(=O)c1c-2n[nH]c1-c1ccsc1` displayed a melting point of more than 280 °C.
Then `COc1cccc2c1nc(C(F)F)n2-c1nc(Nc2cccnn2)nc(N2CCOCC2)n1`, with 261 to 263 °C.
In turn, `Cc1noc2cc3c(cc12)C1(CO3)C(=O)Nc2ccccc21` (configuration not stated) gave a melting point of 226 to 227 °C.
Then `CCOP(=O)(Cc1cc(C)cc(C)n1)OCC`, with 109 to 112 °C; and `Cc1c(C)c2c(c(C)c1NC(=O)c1ccc(F)cc1)C(c1ccccc1)C(C)(C)O2` (configuration not stated), with 156 to 158 °C; and `CSc1cc(C)nc(SC)c1NC(=O)CCl`, with 190 to 192 °C.
With `NCCNC(=O)CC(CO)c1c(Cl)cccc1Cl` (configuration not stated), the melting point lay in the range of 127 to 129 °C.
For `O=C(NC(=O)c1ccccc1F)Nc1ccc(F)c(C(F)(F)F)c1Cl`, the melting point turned out to be 173 °C.
Then `COC(=O)CC(=O)NC(C)(C)CC(C)(C)C`, with 74 to 75 °C; and `O=C1OC2(CCN(CCOC(c3ccccc3)c3ccccc3)CC2)c2ccccc21`, with 99 to 100 °C.
For the compound `CN1CC=C(c2c[nH]c(-c3ccc(F)cc3)c2-c2ccncc2)CC1Cc1ccccc1` (configuration not stated), the melting point lay in the range of 198 to 199 °C.
Then `CN(CCNC(=NCCCOc1cccc(CN2CCCCC2)c1)NC#N)CCN(Cc1ccc(F)cc1)c1ccccn1`, with 106 °C; and `CN1Cc2c(C(=O)OC(C)(C)C)ncn2-c2cccc(I)c2C1=O`, with 203 to 204 °C.
With `COc1ccc(CCCCNC(=O)CCl)cc1OC`, the melting point was 94 to 95 °C.
Then `CCCCCCCCCCC1C(=O)NC(=O)NC1=O`, with 190 °C.
Then `O=c1c2cccc(O)c2oc2cc(O)cc(O)c12`, with 211 to 213 °C.
Then `Cc1nnc2cc(C(=O)O)cc(Cl)n12`, with 259 to 260 °C; and `CSc1nc(-c2cc(C(=O)N(C)C)ccc2C)c2c(n1)N(c1c(F)cccc1F)C(=O)NC2`, with 144 to 147 °C; and `C(=Cc1ccc2c(n1)[nH]c1ccccc12)c1ccccc1`, with more than 220 °C.
Consider `CCC12CCC3=C(CCc4cc(O)ccc43)C1CCC2O` (configuration not stated), for which the melting point was 234 to 238 °C.
Then `O=C(c1ccc(F)cc1)C1CCN(CCCn2c(=O)[nH]c3cc(C(F)(F)F)ccc32)CC1`, with 160 °C.
Then `CCCN(CCC12CC3CC(CC(C3)C1)C2)C(=O)NCCCc1ccncc1`, with 99 to 103 °C; and `Clc1cnc2c(C(Cl)(Cl)Cl)cc(Cl)cc2c1`, with 198 °C; and `CC(=O)N(O)C(C)c1cn(C)c2ccccc12` (configuration not stated), with 106 to 108 °C.
For `c1ccc2c(NC3CCC(Nc4nccc5ccccc45)CC3)nccc2c1` (configuration not stated), the melting point lay within 278 to 280 °C.
Then `CCCCCCCCCCCCCCCCCNC(=O)OCCSCCOC(=O)NCc1ccccn1`, with 73 to 74 °C; and `O=C(CCc1cccc(Oc2ccccc2)c1)c1ccc[nH]1`, with 75 to 76 °C; and `CC1Cc2c(F)cc(F)cc2C1=O` (configuration not stated), with 68 to 69 °C.
The compound `CCSC=C1C(=O)OC(C)(C)OC1=O` had a melting point of 52 to 54 °C.
Then `Cc1c(CCN(C)C(=O)OC(C)(C)C)c2cc(S(=O)(=O)c3cccc4ccccc34)ccc2n1C`, with 176 to 178 °C.
Then `O=C1Nc2ccc(F)cc2C1c1ncnc2nn(C3CCCCC3)cc12` (configuration not stated), with 294 to 298 °C.
Then `CCCCCCCCCCC1CNC(=O)O1` (configuration not stated), with 86 to 87 °C; and `O=C(c1ccc(Nc2ccnc3cc(C(F)(F)F)ccc23)cc1)N1CCC(O)(c2cccc(C(F)(F)F)c2)CC1`, with 278 to 279 °C.
With `O=P(O)(O)Cc1cccc(C(F)(F)F)c1`, the melting point is 163 to 164 °C.
Then `O=C(NC1CC1)c1ccc(N2CCNCC2)cc1`, with 175 to 177 °C; and `OCC(O)COc1ccccc1OCc1ccccc1` (configuration not stated), with 81 to 82.5 °C; and `CC(C)Oc1ccc(CCCOc2cc(CCC(=O)O)n(C3CCCCC3)n2)c(Oc2ncc(C(F)(F)F)cc2Cl)c1`, with 114 to 115 °C.
Consider `COc1ccc(-c2c(C(=O)Cl)sc3ccccc23)cc1OC`, for which the melting point was determined as 113 °C.
As to `O=C(CCCCCOc1ccccc1)c1ccccc1`, the melting point was 53.5 to 54.5 °C.
